Measurements from PubChem BioAssay AID248 (DTP/NCI, 2004).
Several values for one entry are separate records, joined by “and”; a condition that tells them apart may be missing. Identical values can stand only once. Toxic doses and inconclusive results are not listed. No stated cut-off is given here; in the data, active means T/C of 150% or more; inactive means T/C below 125%.

Tested on: L1210 leukemia ip in BDF1 mice, survival T/C
Experiment: NCI In Vivo Anticancer Drug Screen. Data for tumor model L1210 Leukemia (intraperitoneal) in B6D2F1 (BDF1) mice
Details: endpoint: mean survival time, higher = longer survival
How it was run: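 Value reflects the ratio of survival in compound-treated mice to survival in vehicle-treated controls, with both groups carrying the same transplanted tumor.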

[1] = dose: 75.0 mg/kg/injection, schedule: Q01DX001 (ip), vehicle: saline
[2] = dose: 12.5 mg/kg/injection, schedule: Q01DX009 (ip), vehicle: saline with Tween-80
[3] = dose: 25.0 mg/kg/injection, schedule: Q04DX003 (ip), vehicle: saline with Tween-80
[4] = dose: 100.0 mg/kg/injection, schedule: Q01DX001 (ip), vehicle: saline
[5] = dose: 200.0 mg/kg/injection, schedule: Q01DX001 (ip), vehicle: saline
[6] = dose: 400.0 mg/kg/injection, schedule: Q01DX001 (ip), vehicle: saline
[7] = dose: 25.0 mg/kg/injection, schedule: Q01DX009 (ip), vehicle: saline with Tween-80
[8] = dose: 100.0 mg/kg/injection, schedule: Q01DX009 (ip), vehicle: Klucel (hydroxypropylcellulose) (HPC)
[9] = dose: 200.0 mg/kg/injection, schedule: Q01DX009 (ip), vehicle: Klucel (hydroxypropylcellulose) (HPC)
[10] = dose: 400.0 mg/kg/injection, schedule: Q01DX009 (ip), vehicle: Klucel (hydroxypropylcellulose) (HPC)
[11] = dose: 50.0 mg/kg/injection, schedule: Q01DX009 (ip), vehicle: saline with Tween-80
[12] = dose: 100.0 mg/kg/injection, schedule: Q04DX002 (ip), vehicle: saline with Tween-80
[13] = dose: 200.0 mg/kg/injection, schedule: Q04DX002 (ip), vehicle: saline with Tween-80
[14] = dose: 400.0 mg/kg/injection, schedule: Q01DX009 (ip), vehicle: saline with Tween-80
[15] = dose: 150.0 mg/kg/injection, schedule: Q01DX001 (ip), vehicle: saline

Measured: T/C

Nc1n[nH]c(N)n1.[Co]
inactive: dose: 50.0 mg/kg/injection, schedule: Q04DX003 (ip), vehicle: saline 103 % of control | dose: 100.0 mg/kg/injection, schedule: Q01DX009 (ip), vehicle: saline 100 % of control | dose: 100.0 mg/kg/injection, schedule: Q04DX003 (ip), vehicle: saline 100 % of control | dose: 200.0 mg/kg/injection, schedule: Q01DX009 (ip), vehicle: saline 94 % of control | dose: 200.0 mg/kg/injection, schedule: Q04DX003 (ip), vehicle: saline 108 % of control | dose: 400.0 mg/kg/injection, schedule: Q01DX009 (ip), vehicle: saline 107 % of control | dose: 400.0 mg/kg/injection, schedule: Q04DX003 (ip), vehicle: saline 105 % of control

O=C1c2ccccc2-c2ccccc2C1(Cl)Cl
inactive: [1] 105 % of control

O=[N+]([O-])c1ccccc1N=Nc1c(O)[nH]c2ccc(S(=O)(=O)O)cc12
inactive: dose: 100.0 mg/kg/injection, schedule: Q01DX001 (ip), vehicle: acetone 94 % of control | dose: 200.0 mg/kg/injection, schedule: Q01DX001 (ip), vehicle: acetone 92 % of control | dose: 400.0 mg/kg/injection, schedule: Q01DX001 (ip), vehicle: acetone 100 % of control

CCCCCCc1cc(N=Nc2ccc(S(=O)(=O)Nc3nnc(C)s3)cc2)c(O)cc1O
inactive: dose: 100.0 mg/kg/injection, schedule: Q01DX001 (ip), vehicle: carboxymethylcellulose (CMC) 98 % of control | dose: 200.0 mg/kg/injection, schedule: Q01DX001 (ip), vehicle: carboxymethylcellulose (CMC) 95 % of control

CC(C(=O)O)N(Cc1ccccc1)S(C)(=O)=O (stereo not drawn)
inactive: dose: 100.0 mg/kg/injection, schedule: Q01DX009 (ip), vehicle: other 97 % of control | dose: 100.0 mg/kg/injection, schedule: Q04DX003 (ip), vehicle: other 94 % of control | dose: 200.0 mg/kg/injection, schedule: Q01DX009 (ip), vehicle: other 106 % of control | dose: 200.0 mg/kg/injection, schedule: Q04DX003 (ip), vehicle: other 102 % of control | dose: 400.0 mg/kg/injection, schedule: Q01DX009 (ip), vehicle: other 108 % of control | dose: 400.0 mg/kg/injection, schedule: Q04DX003 (ip), vehicle: other 101 % of control

O=C(c1ccccc1)C1C(c2ccccc2)OP(c2ccccc2)(c2ccccc2)(c2ccccc2)C1c1ccccc1 (stereo not drawn)
inactive: dose: 6.25 mg/kg/injection, schedule: Q04DX003 (ip), vehicle: saline with Tween-80 102 % of control | [2] 97 % of control | [3] 94 % of control

c1ccc2c(c1)CCCN2
inactive: [4] 99 % of control | [5] 89 % of control | [6] 89 % of control

C/C(=N\N)c1ccc(Cl)cc1
inactive: dose: 6.25 mg/kg/injection, schedule: Q01DX009 (ip), vehicle: saline with Tween-80 93 % of control | [2] 101 % of control | [7] 96 % of control

CC(CO)(NC(=O)OCc1ccccc1)C(=O)O (stereo not drawn)
inactive: dose: 100.0 mg/kg/injection, schedule: Q01DX009 (ip), vehicle: acetone 94 % of control | dose: 200.0 mg/kg/injection, schedule: Q01DX009 (ip), vehicle: acetone 92 % of control | dose: 400.0 mg/kg/injection, schedule: Q01DX009 (ip), vehicle: acetone 92 % of control

Cc1ccc(NC(=O)Oc2cccc(C)c2C)cc1NC(=O)Oc1cccc(C)c1C
inactive: [8] 96 % of control | [9] 94 % of control | [10] 93 % of control

O=C(Oc1ccccc1)Oc1ccccc1
inactive: dose: 100.0 mg/kg/injection, schedule: Q04DX002 (ip), vehicle: Klucel (hydroxypropylcellulose) (HPC) 96 % of control | dose: 200.0 mg/kg/injection, schedule: Q04DX002 (ip), vehicle: Klucel (hydroxypropylcellulose) (HPC) 96 % of control | dose: 400.0 mg/kg/injection, schedule: Q04DX002 (ip), vehicle: Klucel (hydroxypropylcellulose) (HPC) 96 % of control

CC(N)C(=O)NC1C(CO)OC(n2cnc3c(N)ncnc32)C1O (stereo not drawn)
inactive: [4] 105 % of control | [5] 101 % of control | [6] 101 % of control

CN(C)c1ccc(/C=N/NC(=O)c2ccc(O)cc2)c(Cl)c1
inactive: [7] 97 % of control and 103 % of control | dose: 50.0 mg/kg/injection, schedule: Q01DX001 (ip), vehicle: saline with Tween-80 86 % of control | [11] 102 % of control and 113 % of control | dose: 100.0 mg/kg/injection, schedule: Q01DX001 (ip), vehicle: saline with Tween-80 88 % of control | [12] 97 % of control and 98 % of control | dose: 100.0 mg/kg/injection, schedule: Q04DX003 (ip), vehicle: saline with Tween-80 104 % of control | dose: 200.0 mg/kg/injection, schedule: Q01DX001 (ip), vehicle: saline with Tween-80 94 % of control | [13] 97 % of control and 91 % of control | dose: 200.0 mg/kg/injection, schedule: Q04DX003 (ip), vehicle: saline with Tween-80 87 % of control | [14] 92 % of control | dose: 400.0 mg/kg/injection, schedule: Q04DX002 (ip), vehicle: saline with Tween-80 94 % of control and 90 % of control | dose: 400.0 mg/kg/injection, schedule: Q04DX003 (ip), vehicle: saline with Tween-80 95 % of control

Cc1[nH]c2ccc([N+](=O)[O-])cc2c(=O)c1[N+](=O)[O-] (tested in a mixture with another compound)
inactive: dose: 50.0 mg/kg/injection, schedule: Q01DX009 (ip), vehicle: Klucel (hydroxypropylcellulose) (HPC) 94 % of control | [8] 87 % of control | [9] 105 % of control

COC(=O)C(C)NC(=O)CNC(=O)OCc1ccccc1 (stereo not drawn)
inactive: dose: 100.0 mg/kg/injection, schedule: Q01DX009 (ip), vehicle: saline with Tween-80 97 % of control | dose: 200.0 mg/kg/injection, schedule: Q01DX009 (ip), vehicle: saline with Tween-80 102 % of control | [14] 92 % of control

CCc1ccccc1N=Nc1sc(N)nc1C
inactive: [1] 94 % of control | [15] 100 % of control | dose: 300.0 mg/kg/injection, schedule: Q01DX001 (ip), vehicle: saline 97 % of control

C[CH2][Ge]([CH2]C)([CH2]C)[CH2]CCO
inactive: dose: 5.0 mg/kg/injection, schedule: Q04DX002 (ip), vehicle: saline with Tween-80 103 % of control | dose: 10.0 mg/kg/injection, schedule: Q04DX002 (ip), vehicle: saline with Tween-80 97 % of control | dose: 20.0 mg/kg/injection, schedule: Q04DX002 (ip), vehicle: saline with Tween-80 95 % of control | [12] 93 % of control | [13] 93 % of control

CN(C)c1ccc(N=Nc2ccccc2)c2cccnc12
inactive: dose: 6.25 mg/kg/injection, schedule: Q01DX009 (ip), vehicle: DMSO 103 % of control | dose: 12.5 mg/kg/injection, schedule: Q01DX009 (ip), vehicle: DMSO 94 % of control | dose: 25.0 mg/kg/injection, schedule: Q01DX009 (ip), vehicle: DMSO 96 % of control | dose: 50.0 mg/kg/injection, schedule: Q01DX009 (ip), vehicle: DMSO 92 % of control | dose: 100.0 mg/kg/injection, schedule: Q01DX009 (ip), vehicle: DMSO 96 % of control | dose: 100.0 mg/kg/injection, schedule: Q04DX003 (ip), vehicle: DMSO 94 % of control | dose: 200.0 mg/kg/injection, schedule: Q04DX003 (ip), vehicle: DMSO 88 % of control | dose: 400.0 mg/kg/injection, schedule: Q04DX003 (ip), vehicle: DMSO 90 % of control

COC(OC)C1OC(c2ccccc2)OC2COC(c3ccccc3)OC21 (stereo not drawn)
inactive: [2] 92 % of control | dose: 12.5 mg/kg/injection, schedule: Q04DX003 (ip), vehicle: saline with Tween-80 93 % of control | [7] 92 % of control | [3] 92 % of control | [11] 92 % of control | dose: 50.0 mg/kg/injection, schedule: Q04DX003 (ip), vehicle: saline with Tween-80 92 % of control

C=COC(=O)NC(C(=O)O)C(C)CC (stereo not drawn)
inactive: [1] 111 % of control | [15] 103 % of control

Cc1ccc([N+](=O)[O-])cc1N=C=O
inactive: [8] 87 % of control | dose: 100.0 mg/kg/injection, schedule: Q04DX003 (ip), vehicle: Klucel (hydroxypropylcellulose) (HPC) 96 % of control | [9] 91 % of control | dose: 200.0 mg/kg/injection, schedule: Q04DX003 (ip), vehicle: Klucel (hydroxypropylcellulose) (HPC) 97 % of control | [10] 97 % of control | dose: 400.0 mg/kg/injection, schedule: Q04DX003 (ip), vehicle: Klucel (hydroxypropylcellulose) (HPC) 97 % of control
